Where two headings read alike, the source gives them in different places.
Assays:
uterine OT receptors = target: T1, uterine OT receptors (Rattus norvegicus, UniProt P70536); assay: [3H]oxytocin (OT) radioligand binding, uterine membranes; conditions: for inhibition at 10 µM: read-out: % Inhibition rat OT
T1 construct: using a crude membrane preparation of uteri; from tissue; host or cells: rat uterus, crude membrane preparation (DES-treated rats)
T1 sequence (P70536 1-388): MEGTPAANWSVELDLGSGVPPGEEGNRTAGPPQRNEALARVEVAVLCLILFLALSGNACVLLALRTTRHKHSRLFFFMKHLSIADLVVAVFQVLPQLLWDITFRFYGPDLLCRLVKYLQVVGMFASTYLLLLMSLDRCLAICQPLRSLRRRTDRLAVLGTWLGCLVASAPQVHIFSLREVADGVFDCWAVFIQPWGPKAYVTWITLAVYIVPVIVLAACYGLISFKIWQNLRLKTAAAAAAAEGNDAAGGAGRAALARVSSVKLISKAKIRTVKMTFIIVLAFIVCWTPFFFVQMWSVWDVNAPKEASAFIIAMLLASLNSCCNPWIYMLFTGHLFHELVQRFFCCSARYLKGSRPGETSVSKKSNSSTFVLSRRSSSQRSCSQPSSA

AVP-V2 sites = AVP-V2 sites (Rattus norvegicus, UniProt Q00788); assay: [3H]vasopressin (AVP) radioligand binding, kidney medulla membranes (AVP-V2 sites); conditions: for inhibition at 3 µM: read-out: % Inhibition rat V2
AVP-V1 sites = target: T2, AVP-V1 sites (Rattus norvegicus, UniProt P30560); assay: [3H]vasopressin (AVP) radioligand binding, liver membranes (AVP-V1 sites); conditions: for inhibition at 3 µM: read-out: % Inhibition rat V1
T2 construct: crude membrane preparation of male rat liver; from tissue; host or cells: male rat liver, crude membrane preparation
T2 sequence (P30560 whole entry): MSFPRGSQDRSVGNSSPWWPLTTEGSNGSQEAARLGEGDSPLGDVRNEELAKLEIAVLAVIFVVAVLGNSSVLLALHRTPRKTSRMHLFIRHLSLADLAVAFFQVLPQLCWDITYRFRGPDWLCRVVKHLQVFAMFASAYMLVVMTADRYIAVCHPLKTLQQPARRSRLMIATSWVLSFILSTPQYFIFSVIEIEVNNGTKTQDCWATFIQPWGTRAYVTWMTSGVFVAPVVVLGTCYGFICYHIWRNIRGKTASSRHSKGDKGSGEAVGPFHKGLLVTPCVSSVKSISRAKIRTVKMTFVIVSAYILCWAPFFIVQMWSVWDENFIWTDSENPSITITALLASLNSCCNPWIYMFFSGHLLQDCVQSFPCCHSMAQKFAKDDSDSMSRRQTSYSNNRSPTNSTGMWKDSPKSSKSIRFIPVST

Sequence of AVP-V2 sites (Q00788 whole entry): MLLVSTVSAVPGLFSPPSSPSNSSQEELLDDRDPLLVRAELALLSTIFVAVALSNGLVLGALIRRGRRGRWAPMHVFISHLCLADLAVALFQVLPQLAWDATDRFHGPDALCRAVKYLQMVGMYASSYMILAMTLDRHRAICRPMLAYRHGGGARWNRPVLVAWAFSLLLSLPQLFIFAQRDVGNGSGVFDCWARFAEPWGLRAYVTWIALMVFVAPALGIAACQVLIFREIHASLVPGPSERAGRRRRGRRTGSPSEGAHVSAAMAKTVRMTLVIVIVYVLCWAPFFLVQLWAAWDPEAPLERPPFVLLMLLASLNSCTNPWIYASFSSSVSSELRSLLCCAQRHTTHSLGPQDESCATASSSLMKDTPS

| SMILES | IC50 (uterine OT receptors) [nM] | IC50 (AVP-V2 sites) [nM] | IC50 (AVP-V1 sites) [nM] | other results |
| --- | --- | --- | --- | --- |
| O=C(c1ccc(-c2ccccc2)cc1)N1CCC(N2C(=O)CCc3ccccc32)CC1 [C6H5] | 3500 | – | – | inhibition at 3 µM (AVP-V2 sites): 2%; inhibition at 3 µM (AVP-V1 sites): 65% |
| O=C(c1ccc(C(F)(F)F)cc1)N1CCC(N2C(=O)CCc3ccccc32)CC1 [CF3] | – | 60000 | 800 | inhibition at 10 µM (uterine OT receptors): 69% |
| O=C(c1cccc2ccccc12)N1CCC(N2C(=O)CCc3ccccc32)CC1 [CO, 1-naphthyl] | – | – | – | inhibition at 10 µM (uterine OT receptors; @ 10 uM): 69%; inhibition at 3 µM (AVP-V2 sites; @ 3 uM): 5%; inhibition at 3 µM (AVP-V1 sites; @ 3 uM): 17% |
| O=C(c1ccc2ccccc2c1)N1CCC(N2C(=O)CCc3ccccc32)CC1 [CO, 2-naphthyl] | – | – | – | inhibition at 10 µM (uterine OT receptors): 75%; inhibition at 3 µM (AVP-V2 sites): 7%; inhibition at 3 µM (AVP-V1 sites): 75% |
| O=C(c1ccc2[nH]ccc2c1)N1CCC(N2C(=O)CCc3ccccc32)CC1 [CO, 5-indolyl] | 1700 | 56000 | 240 | – |
| Nc1ccc(CC(=O)N2CCC(N3C(=O)CCc4ccccc43)CC2)cc1 [CO, p-CH2C6H4NH2] | – | – | – | inhibition at 1 µM (uterine OT receptors; @ 1 uM): 19%; inhibition at 3 µM (AVP-V2 sites; @ 3 uM): 1%; inhibition at 3 µM (AVP-V1 sites; @ 3 uM): 27% |
| CC(=O)Nc1ccc(CC(=O)N2CCC(N3C(=O)CCc4ccccc43)CC2)cc1 [CO, p-CH2C6H4NHAc] | 2300 | > 100000 | 950 | – |
| COc1ccc(CC(=O)N2CCC(N3C(=O)CCc4ccccc43)CC2)cc1 [CO, p-CH2C6H4OCH3] | 2400 | > 100000 | 6000 | – |
| O=C(c1ccc(OCCCN2C(=O)c3ccccc3C2=O)cc1)N1CCC(N2C(=O)CCc3ccccc32)CC1 [Example 2] | 1100 | – | – | – |
| COc1ccc(C(=O)N2CCC(N3C(=O)CCc4ccccc43)CC2)c(OC)c1 [Example 5] | 560 | – | 39 | – |
| O=C(c1ccc(OCCCN2C(=O)c3ccccc3C2=O)cc1)N1CCC(N2C(=O)CCc3ccccc32)CC1 [O(CH2)3NPth (drawing 528)] | – | ≥ 100000 | – | – |
| CC1(C)[C@@H]2CC[C@@]1(CS(=O)(=O)N1CCC(N3C(=O)CCc4ccccc43)CC1)C(=O)C2 [SO2, (+)-camphor-10-yl] | 1900 | 72000 | 8000 | – |
| COc1ccc(S(=O)(=O)N2CCC(N3C(=O)CCc4ccccc43)CC2)cc1 [SO2, p-C6H4OCH3] | – | – | – | inhibition at 10 µM (uterine OT receptors; @ 10 uM): 36%; inhibition at 3 µM (AVP-V2 sites; @ 3 uM): 12%; inhibition at 3 µM (AVP-V1 sites; @ 3 uM): 15% |
| COc1cccc(C(=O)N2CCC(N3C(=O)CCc4ccccc43)CC2)c1 [m-OCH3] | 2700 | > 100000 | 2100 | – |
| Cc1ccc(C(=O)N2CCC(N3C(=O)CCc4ccccc43)CC2)c(C)c1 [o-CH3, p-CH3] | – | – | – | inhibition at 10 µM (uterine OT receptors; @ 10 uM): 79%; inhibition at 3 µM (AVP-V2 sites; @ 3 uM): 55%; inhibition at 3 µM (AVP-V1 sites; @ 3 uM): 48% |
| O=C(c1ccc(Cl)cc1Cl)N1CCC(N2C(=O)CCc3ccccc32)CC1 [o-Cl, p-Cl] | – | – | – | inhibition at 10 µM (uterine OT receptors; @ 10 uM): 7%; inhibition at 3 µM (AVP-V2 sites; @ 3 uM): 1%; inhibition at 3 µM (AVP-V1 sites; @ 3 uM): 34% |
| O=C(c1ccc([N+](=O)[O-])cc1Cl)N1CCC(N2C(=O)CCc3ccccc32)CC1 [o-Cl, p-NO2] | 15000 | – | – | inhibition at 3 µM (AVP-V2 sites): 6%; inhibition at 3 µM (AVP-V1 sites): 34% |
| COc1ccc(C(=O)N2CCC(N3C(=O)CCc4ccccc43)CC2)c(OC)c1 [o-OCH3, p-OCH3 (drawing 527)] | – | 28000 | – | – |
| COc1ccccc1C(=O)N1CCC(N2C(=O)CCc3ccccc32)CC1 [o-OCH3] | 1100 | 66000 | 380 | – |
| CC(C)(C)c1ccc(C(=O)N2CCC(N3C(=O)CCc4ccccc43)CC2)cc1 [tert-C4H9] | – | ~70000 | 800 | inhibition at 10 µM (uterine OT receptors): 77% |

Source: patent US5356904A, “Carbostyril oxytocin receptor antagonists” (Merck & Co., Inc., priority 1992, dated 1994)
